Several values for one entry are separate records, joined by “and”; a condition that tells them apart may be missing. Equal entries are not always repeated.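 Results reflect a 48-hour exposure of cells in 96-well plates to compound at five concentrations. The concentration for 50% growth inhibition is given as GI50. TGI: total growth inhibition.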

Some test systems named below: DLD-1 colon; DMS 114 small cell lung; DMS 273 small cell lung; HOP-18 NSCLC; KM20L2 colon; RXF-631 renal; SNB-78 CNS; XF 498 CNS; MDA-N; P388/ADR leukemia.
Assay in all cases: NCI tumour cell line growth inhibition, 48 h

With `COC1=CC(O)(CC(N)=O)c2ccccc2C1=O` (stereo not drawn), the TGI in the test on DLD-1 colon was over 100000 nM; in the test with DMS 114 small cell lung it was over 100000 nM; in the test with DMS 273 small cell lung it was over 100 µM; in the test with HOP-18 NSCLC, over 100 µM; in the test with KM20L2 colon it was over 100000 nM; with RXF-631 renal it was over 100 µM. Also, the TGI with SNB-78 CNS and with XF 498 CNS was over 100 µM throughout.

With `CC[C@H]1CN2CCc3cc(OC)c(OC)cc3[C@@H]2C[C@@H]1C[C@H]1NCCc2cc(O)c(OC)cc21`, the TGI with DLD-1 colon was 45.4 nM and 356 nM; with DMS 114 small cell lung, 24.7 nM and 37.3 nM; in the test on HOP-18 NSCLC, 0.793 µM; in the test with KM20L2 colon it was 30.2 nM and 136 nM; with MDA-N it was 35.4 nM and 141 nM; in the test on P388/ADR leukemia, 29.6 µM. The TGI in the test on XF 498 CNS was 0.0388 µM. Moreover, the GI50 is 28.4 nM and 130 nM in the test on HOP-18 NSCLC; 12.7 nM with MDA-N; 60.9 nM in the test with P388/ADR leukemia; 26.6 nM and 50.2 nM in the test on SNB-78 CNS; 25 nM with XF 498 CNS.

Take `O=S(O)CCCCCSSCCCCSSCCCCCS(=O)O`: the TGI with DLD-1 colon was over 100000 nM; in the test with DMS 114 small cell lung, over 100000 nM; in the test with DMS 273 small cell lung, over 100 µM; with HOP-18 NSCLC, over 100 µM; in the test on KM20L2 colon, over 100000 nM; in the test with RXF-631 renal, over 100 µM. In addition, the TGI in the test on SNB-78 CNS and in the test on XF 498 CNS was over 100 µM throughout.

(Values after PubChem BioAssay (NCI).)
